The subject of assay [1] is sterol synthesis by rat liver homogenate. Put plainly: CSI screen: inhibition of sterol synthesis (14C-acetate incorporation into nonsaponifiable lipid) by rat liver homogenate. Format: biochemical. The settings on record: one-hour period, footnote: adjusted for a standard IC50 value for compactin (internal standard). As for the experimental part:
The ability of compounds of the present invention to inhibit the biosynthesis of cholesterol was measured by two methods. A first method (designated CSI screen) utilized the procedure described by R. E. Dugan et al., Archiv. Biochem. Biophys., (1972), 152, 21-27. In this method, the level of HMG-CoA enzyme activity in standard laboratory rats is increased by feeding the rats a chow diet containing 5% cholestyramine for four days, after which the rats are sacrificed.
The rat livers are homogenized, and the incorporation of cholesterol-^14 C-acetate into nonsaponifiable lipid by the rat liver homogenate is measured. The micromolar concentration of compound required for 50% inhibition of sterol synthesis over a one-hour period is measured, and expressed as an IC50 value.

Assay [2] addresses T1, HMG-CoA reductase (Rattus norvegicus, UniProt P51639).
T1 sequence (P51639 1-887): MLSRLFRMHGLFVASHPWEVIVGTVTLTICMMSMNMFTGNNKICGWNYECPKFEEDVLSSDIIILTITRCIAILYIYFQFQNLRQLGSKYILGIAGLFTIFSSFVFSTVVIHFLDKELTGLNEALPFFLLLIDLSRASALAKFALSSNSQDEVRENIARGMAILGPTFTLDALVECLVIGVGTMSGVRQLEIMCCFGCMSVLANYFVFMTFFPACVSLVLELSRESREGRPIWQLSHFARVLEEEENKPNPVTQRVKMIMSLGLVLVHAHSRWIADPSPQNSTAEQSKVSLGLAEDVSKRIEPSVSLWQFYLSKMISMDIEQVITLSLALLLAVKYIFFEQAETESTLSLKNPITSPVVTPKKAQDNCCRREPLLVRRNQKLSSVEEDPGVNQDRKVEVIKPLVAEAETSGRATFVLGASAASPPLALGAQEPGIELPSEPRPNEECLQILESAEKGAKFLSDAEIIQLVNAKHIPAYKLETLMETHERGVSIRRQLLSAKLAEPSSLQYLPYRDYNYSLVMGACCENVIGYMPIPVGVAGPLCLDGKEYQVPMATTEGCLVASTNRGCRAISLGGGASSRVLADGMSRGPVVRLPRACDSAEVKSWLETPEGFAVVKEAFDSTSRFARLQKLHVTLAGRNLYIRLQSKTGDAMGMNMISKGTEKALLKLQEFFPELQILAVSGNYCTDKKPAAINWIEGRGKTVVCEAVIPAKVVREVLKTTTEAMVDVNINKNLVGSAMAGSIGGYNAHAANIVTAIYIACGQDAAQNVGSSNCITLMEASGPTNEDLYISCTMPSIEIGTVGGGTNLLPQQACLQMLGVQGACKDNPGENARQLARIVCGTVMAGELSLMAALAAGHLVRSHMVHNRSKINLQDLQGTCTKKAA
As to the kind of experiment: COR screen: conversion of 14C-HMG-CoA to 14C-mevalonate by purified HMG-CoA reductase. The settings on record: purified enzyme preparation, footnote: adjusted for a standard IC50 value for compactin (internal standard). Format: biochemical. On the procedure: A second method (designated COR screen) employed the procedure detailed by T. Kita, et al., J. Clin. Invest., (1980), 66: 1094-1100. In this method, the amount of ^14 C-HMG-CoA converted to ^14 C-mevalonate in the presence of a purified enzyme preparation of HMG-CoA reductase was measured. The micromolar concentration of compound required for 50% inhibition of cholesterol synthesis was measured and recorded as an IC50 value.

SMILES strings stand for the structures.

Consider `CC(C)c1ccc(-c2ccc(F)cc2)n1CC[C@H]1C[C@H](O)CC(=O)O1` (relative stereo) [Compound 1, trans-6-[2-[2-(4-fluorophenyl)-5-(1-methylethyl)-1H-pyrrol-1-yl]ethyl]tetrahydro-4-hydroxy-2H-pyran-2-one], for which the 50% inhibitory concentration (IC50) came to 480 nM in assay [1] and 280 nM in assay [2].
On to `CC(C)c1c(Cl)c(Cl)c(-c2ccc(F)cc2)n1CC[C@H]1C[C@H](O)CC(=O)O1` (relative stereo) [Compound 2, 6-[2-[2-(4-fluorophenyl)-3,4-dichloro-5-(1-methylethyl)-1H-pyrrol-1-yl]ethyl]tetrahydro-4-hydroxy-trans-2H-pyran-2-one], for which the concentration for half-maximal inhibition (IC50) amounted to 160 nM in assay [1] and 24 nM in assay [2].
Turning to `CC(C)c1c(Br)c(Br)c(-c2ccc(F)cc2)n1CC[C@H]1C[C@H](O)CC(=O)O1` (relative stereo) [Compound 3, 6-[2-[2-(4-fluorophenyl)-3,4 dibromo-5-(1-methylethyl)-1H-pyrrol-1-yl]ethyl]tetrahydro-4-hydroxy-trans-2H-pyran-2-one], the results for the IC50 in assay [1] and in assay [2] were 220 nM and 1 nM, respectively.
Regarding `COC(=O)c1c(C(=O)OC)c(C(C)C)n(CC[C@@H]2C[C@@H](O)CC(=O)O2)c1-c1ccc(F)cc1` (relative stereo) [Compound 4, Dimethyl-2-(4-Fluorophenyl)-5-(1-methylethyl)-1-[2-(tetrahydro-4-hydroxy-6-oxo-2H-pyran-2-yl)ethyl]-1H-pyrrole-3,4-dicarboxylate], the IC50 in assay [1] was found to be 110 nM; in assay [2], 80 nM.
For the molecule `CC[C@H](C)C(=O)O[C@H]1CCC=C2C=C[C@H](C)[C@H](CC[C@@H]3C[C@@H](O)CC(=O)O3)[C@H]21` [Compound 5, Compactin, reference compound], the concentration for half-maximal inhibition (IC50) was determined as 26 nM in assay [1] and 28 nM in assay [2].

Source of the values: patent US4647576A, “Trans-6-[2-(substitutedpyrrol-1-yl)alkyl]-pyran-2-one inhibitors of cholesterol synthesis” (Warner-Lambert Company, priority 1984, dated 1987).
